# Source: US7794712B2, “Production of mutant strain of Aspergillus fumigatus, method of assay for inhibiting siderophore biosynthesis and diagnostic method for detecting likely Aspergillus fumigatus infection” (priority 2004, dated 2010)
# Where “and” joins values, the source holds several entries; their conditions need not be identical. Identical values can stand only once.
# Assays:
# [1] = system: A. fumigatus 13073; experiment: Growth scored by A600 in 96-well plates with or without iron; assay type: cell-based, Aspergillus fumigatus; conditions: 48 hours
# Method: Siderophore production and growth was scored by using one antibiotic (amphotericin B) with two types of media (Neilands' with and without citrate), using the same spore concentrations as given above, but a shorter incubation time. Generally, this portion of the assay would be carried out when there was a potential inhibitor which scored positively in the first round of screening. Growth is scored with and without iron in the media.
# (§1) Three identical plates were set up: one filter plate and two sterile clear 96-well plates. The clear plates were used to score growth, and the filter plate was used to detect siderophores. Columns 1-6 contained Neilands' medium without citrate and amphotericin 0-2 at g/ml. Columns 7-12 contained Neilands' medium with citrate and amphotericin at […]. The rows were set up with A. fumigatus as described above, but two sets of each were set up to be in the two plates. The spores from the previous experiment were stored at −20° C. in PBS, in siliconized tubes, at 2×10^8 conidia/ml, to facilitate these experiments. Plates were incubated for 48 hours at 37° C. without shaking.
# (§2) The filter plate was centrifuged at 1000×g for 10 minutes and the liquids caught in a clear non-sterile plate, to which FeCl3 was added. The plate was allowed to sit and develop orange colour, and was then read at 440 nm. The clear plates (one without Fe and one with Fe added to growth medium from the beginning) were read at 600 nm (A600). In the result, iron enhanced conidiation. Some wells of the filter plate were lightly conidiated and would not drain. These were hand pipetted.
# [2] = system: A. fumigatus 13073; experiment: Siderophore secretion inhibitor assay (A440 after FeCl3 addition); assay type: cell-based, Aspergillus fumigatus; conditions: for A440 (ferrated siderophores): 3 days; for Siderophore production as measured by A440: Neilands' medium without citrate, 48 hours
# Description: In this example 96-well sterile polystyrene filter plates as described above with white Duropore membranes at the base of the plate (Millipore) were used. The plates include a thick plastic layer under the wells, which has a one-way valve function that directs fluid into a receiving 96-well plate when the filter plate is subjected to a vacuum manifold or a centrifugal force. This layer can be peeled off if the membranes are to be sampled (punched) later.
# Cultures were set up in the filter plates, with controls and inhibitors to be tested. After inclubation, culture fluid was pulled into a 96-well receiver plate, using the Beckman centrifuge and a JS 5.3 rotor designed to take 96-well plates. FeCl3 was added to the receiver plates, and A430 (general siderophores) or A440 (max for TAF) was read. Growth was scored in the plate by reading A600.
# To test this method, different antibiotics were used to show inhibition of siderophore production by A. fumigatus 13073, as no inhibitors for the SidA gene product are currently known. Suitable ranges of concentrations of amphotericin B (fungizone), hygromycin, and nystatin were calculated based on the literature. Spores were harvested from A. fumigatus 13073 into PBS Tween, then washed once with PBS and counted. They were then diluted into Neilands' medium (without citrate) to give solutions of 2×10^5 and 2×10^6/ml. 100 μl of 2× spores and 100 μl of 2× antibiotics to yield a volume of 200 μl of Neilands' medium in each well, with the desired final concentrations of spores, 10^5 or 10^6/ml.
# Antibiotics were prepared as follows. Amphotericin B came as a liquid solution, 250 µg/ml. […] Therefore 0, 0.125, 0.25, 0.5, 1 and […] final concentration was used. Nystatin was stored it in ˜1 mg dry aliquots at −20 C, and was prepared at a concentration of 2 mg/ml in DMSO for dilution into Neilands' media. According to reported information, nystatin should be effective at 1.5 to 6.5 µg/ml; therefore, 0, 0.5, 1, 5, 10 and 50 µg/ml were used as the final concentrations. Hygromycin gold stock was in solution at 100 mg/ml, and 0, 25, 50, 100, 150 and 200 µg/ml were used as the final concentrations in Neilands' medium. Plates were incubated for 3 days at 37° C. with shaking.
# To test for siderophores, 20 μL of a solution of 2 mM FeCl3 in 10 mM HCl was added to each well in the receiver plates and the A440 was recorded on a plate reader. […] An increase in A440 indicates a more intense orange-red colour that develops in the presence of ferrated siderophores. […] Because 3-day incubation produces conidia, shorter incubation periods may be preferable.
# as §1, §2
# [3] = system: invasive aspergillosis; conditions: with prophylaxis and treatment; cited from earlier work
smiles,measurement,setting,value
C[C@@H]1[C@H](O)[C@@H](C)/C=C/C=C/C=C/C=C/C=C/C=C/C=C/[C@H](O[C@@H]2O[C@H](C)[C@@H](O)[C@H](N)[C@@H]2O)C[C@@H]2O[C@](O)(C[C@@H](O)C[C@@H](O)[C@H](O)CC[C@@H](O)C[C@@H](O)CC(=O)O[C@H]1C)C[C@H](O)[C@H]2C(=O)O [amphotericin B],Effect of iron on growth inhibition,[1]; Neilands' medium with vs without Fe,addition of iron did not change the pattern of growth inhibition
same,Growth as measured by A600,"[1]; amphotericin B 0.13 μg/ml, 1000000 spores/ml, Neilands' medium without citrate or Fe",0.137 and 0.113 and 0.168
same,Growth as measured by A600,"[1]; amphotericin B 0.13 μg/ml, 1000000 spores/ml, Neilands' medium without citrate with Fe",0.139 and 0.113 and 0.169
same,Growth as measured by A600,"[1]; amphotericin B 0.25 μg/ml, 100000 spores/ml, Neilands' medium without citrate or Fe",0.068 and 0.083 and 0.076
same,Growth as measured by A600,"[1]; amphotericin B 0.25 μg/ml, 100000 spores/ml, Neilands' medium without citrate with Fe",0.067 and 0.091 and 0.076
same,Growth as measured by A600,"[1]; amphotericin B 0.25 μg/ml, 1000000 spores/ml, Neilands' medium without citrate or Fe",0.111 and 0.126 and 0.157
same,Growth as measured by A600,"[1]; amphotericin B 0.25 μg/ml, 1000000 spores/ml, Neilands' medium without citrate with Fe",0.11 and 0.126 and 0.157
same,Growth as measured by A600,"[1]; amphotericin B 0.50 μg/ml, 100000 spores/ml, Neilands' medium without citrate or Fe",0.035
same,Growth as measured by A600,"[1]; amphotericin B 0.5 μg/ml, 100000 spores/ml, Neilands' medium without citrate with Fe",0.035 and 0.034
same,Growth as measured by A600,"[1]; amphotericin B 0.50 μg/ml, 1000000 spores/ml, Neilands' medium without citrate or Fe",0.038 and 0.039 and 0.037
same,Growth as measured by A600,"[1]; amphotericin B 0.5 μg/ml, 1000000 spores/ml, Neilands' medium without citrate with Fe",0.038 and 0.039
same,Growth as measured by A600,"[1]; amphotericin B 1 μg/ml, 100000 spores/ml, Neilands' medium without citrate or Fe",0.035 and 0.036
same,Growth as measured by A600,"[1]; amphotericin B 1 μg/ml, 100000 spores/ml, Neilands' medium without citrate with Fe",0.035
same,Growth as measured by A600,"[1]; amphotericin B 1 μg/ml, 1000000 spores/ml, Neilands' medium without citrate or Fe",0.039 and 0.038
same,Growth as measured by A600,"[1]; amphotericin B 1 μg/ml, 1000000 spores/ml, Neilands' medium without citrate with Fe",0.039
same,Growth as measured by A600,"[1]; amphotericin B 2 μg/ml, 100000 spores/ml, Neilands' medium without citrate or Fe",0.035 and 0.036
same,Growth as measured by A600,"[1]; amphotericin B 2 μg/ml, 100000 spores/ml, Neilands' medium without citrate with Fe",0.035
same,Growth as measured by A600,"[1]; amphotericin B 2 μg/ml, 1000000 spores/ml, Neilands' medium without citrate or Fe",0.038 and 0.039
same,Growth as measured by A600,"[1]; amphotericin B 2 μg/ml, 1000000 spores/ml, Neilands' medium without citrate with Fe",0.038 and 0.039
same,A440 (ferrated siderophores),"[2]; amphotericin B 0.13 μg/ml, 1.00E+05 spores/ml",0.178 and 0.156 and 0.145
same,A440 (ferrated siderophores),"[2]; amphotericin B 0.13 μg/ml, 1.00E+06 spores/ml",0.211 and 0.200
same,Siderophore production as measured by A440,"[2]; amphotericin B 0.13 μg/ml, 100000 spores/ml",0.047 and 0.042
same,A440 (ferrated siderophores),"[2]; amphotericin B 0.25 μg/ml, 1.00E+05 spores/ml",0.038 and 0.039 and 0.040
same,A440 (ferrated siderophores),"[2]; amphotericin B 0.25 μg/ml, 1.00E+06 spores/ml",0.085 and 0.168 and 0.130
same,Siderophore production as measured by A440,"[2]; amphotericin B 0.25 μg/ml, 100000 spores/ml",0.044 and 0.043
same,Siderophore production as measured by A440,"[2]; amphotericin B 0.25 μg/ml, 1000000 spores/ml",0.047 and 0.046 and 0.048
same,A440 (ferrated siderophores),"[2]; amphotericin B 0.50 μg/ml, 1.00E+05 spores/ml",0.042 and 0.040 and 0.039
same,A440 (ferrated siderophores),"[2]; amphotericin B 0.50 μg/ml, 1.00E+06 spores/ml",0.038 and 0.042 and 0.035
same,Siderophore production as measured by A440,"[2]; amphotericin B 0.50 μg/ml, 100000 spores/ml",0.042 and 0.043 and 0.046
same,Siderophore production as measured by A440,"[2]; amphotericin B 0.50 μg/ml, 1000000 spores/ml",0.043 and 0.042
same,A440 (ferrated siderophores),"[2]; amphotericin B 1.00 μg/ml, 1.00E+05 spores/ml",0.032 and 0.039 and 0.036
same,Siderophore production as measured by A440,"[2]; amphotericin B 1 μg/ml, 100000 spores/ml",0.042 and 0.041 and 0.045
same,Siderophore production as measured by A440,"[2]; amphotericin B 1 μg/ml, 1000000 spores/ml",0.05 and 0.047
same,A440 (ferrated siderophores),"[2]; amphotericin B 2.00 μg/ml, 1.00E+05 spores/ml",0.041 and 0.034
same,A440 (ferrated siderophores),"[2]; amphotericin B 2.00 μg/ml, 1.00E+06 spores/ml",0.036 and 0.034
same,Siderophore production as measured by A440,"[2]; amphotericin B 2 μg/ml, 100000 spores/ml",0.045
same,Siderophore production as measured by A440,"[2]; amphotericin B 2 μg/ml, 1000000 spores/ml",0.044 and 0.043 and 0.045
same,Mortality rate if the disease spreads to the central nervous system,[3],~100%
same,"Mortality rate, pulmonary aspergillosis",[3],65%
